Structures are written as SMILES.

Assay [1] deals with T1, 5-lipoxygenase (Rattus norvegicus, UniProt P12527).
T1 construct: endogenous in cells; host or cells: RBL-1 cells (rat basophilic leukemia)
T1 sequence (P12527 1-673): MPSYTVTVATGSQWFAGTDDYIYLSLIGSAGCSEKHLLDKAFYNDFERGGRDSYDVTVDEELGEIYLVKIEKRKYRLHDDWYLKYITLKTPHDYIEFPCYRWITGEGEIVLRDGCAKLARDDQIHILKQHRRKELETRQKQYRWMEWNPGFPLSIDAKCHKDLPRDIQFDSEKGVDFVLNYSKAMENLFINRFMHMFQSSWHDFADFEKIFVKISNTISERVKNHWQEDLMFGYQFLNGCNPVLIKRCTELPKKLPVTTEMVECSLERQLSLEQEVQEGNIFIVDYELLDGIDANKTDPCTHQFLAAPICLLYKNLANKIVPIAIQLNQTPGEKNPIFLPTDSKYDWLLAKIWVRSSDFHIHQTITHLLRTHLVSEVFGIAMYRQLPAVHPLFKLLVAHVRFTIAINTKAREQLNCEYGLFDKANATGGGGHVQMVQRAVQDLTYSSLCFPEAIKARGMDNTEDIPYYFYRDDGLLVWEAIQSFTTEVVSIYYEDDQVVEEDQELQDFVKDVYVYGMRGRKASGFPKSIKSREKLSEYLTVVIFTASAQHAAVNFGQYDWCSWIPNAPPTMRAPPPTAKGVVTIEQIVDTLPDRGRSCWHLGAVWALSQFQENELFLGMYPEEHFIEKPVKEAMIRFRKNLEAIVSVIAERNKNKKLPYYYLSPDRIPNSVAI
In words: Inhibition of Cell-free 5-lipoxygenase from RBL-1-cells (polarographic, 10,000 × g supernatant). The following applies: 10,000 × g supernatant of homogenized RBL-1-cells; arachidonic acid 75 μM; 35° C.; calculated IC50. Format: biochemical. On the procedure:
Cell-free 5-lipoxygenase was polarographically measured from 10,000 × g supernatant of homogenized rat basophilic leucemia cells (M. Haurand & L. Flohe in Biol. Chem. Hoppe-Seyler 369, 133 to 142 (1988)). After preincubation of the 10,000 × g supernatant with arachidonic acid (75 μM), ATP (adenosine triphosphate; 4 mM), reduced glutathione (4 mM), and either a compound according to the invention (0.1 to 100 μM) or a solvent (ethanol and/or dimethyl sulfoxide) at 35° C. for 5 minutes, the lipoxygenase reaction was initiated by addition of calcium chloride (3 mM) and simultaneously recorded.
The activity of 5-lipoxygenase was determined from the difference in the pO2 -decrease before and after addition of calcium chloride. The evaluation included the initial rate of the reaction after the lag-phase as well as the duration of the lag-phase. In the concentration range of from 3 to 50 μM, the test substances induced lag-phases between 20 and 60 seconds.

In assay [2] the target is T1, 5-lipoxygenase. Description: Inhibition of 5-lipoxygenase in RBL-1-cells. Format: cell-based. The note with it: 20 μM [14C]-arachidonic acid, 20 μM calcium ionophore A 23 187, 10 minutes. The procedure: To determine the inhibition of 5-lipoxygenase, rat basophilic leukemia cells (RBL-1-cells) were cultured in vitro, harvested by centrifugation, washed with 50 mM potassium phosphate buffer of pH 7.4, and then suspended in this buffer at 1×10^7 cells/ml. Indomethacin (10 μM) and calcium chloride (2 mM) were added to 1 ml portions of this suspension, and then the mixture was incubated either in the presence of a compound according to the invention in a concentration range of from 0,1 μM to 100 μM or in the presence of a solvent (ethanol and/or dimethyl sulfoxide) for 3 minutes and thereafter with 20 μM of [^14 C]-arachidonic acid and 20 μM of calcium ionophore A 23 187 for 10 minutes. The reaction was stopped by adding 20 μl of glacial acetic acid, and then the mixture was extracted with ethyl acetate to isolate the metabolites of arachidonic acid formed by the enzymatic action of 5-lipoxygenase. These were separated by thin layer chromatography using a solvent mixture known to be suitable for lipoxygenase products [c.f. Jakschik et al., Biochem. Biophys. Res. Commun. 102, 624 (1981)].
The distribution of radioactivity among the different metabolites of arachidonic acid was measured using a TLC Linear Analyzer. By correlating the percentage amounts of the products formed under the action of 5-lipoxygenase (5HETE, isomers of LTB4) in the absence as well as in the presence of different concentrations of compounds according to the invention, the IC50 -values, i.e. the concentrations which cause a 50% inhibition of 5-lipoxygenase, were determined graphically from semilogarithmic plots.

On to `CC(=O)N(O)C(C)c1ccc(C(O)C#Cc2ccccc2)cc1` (stereo not drawn) [Example 6, N-Hydroxy-N-[1-[4-(1-hydroxy-3-phenyl-prop-2-yn-1-yl)phenyl]ethyl]acetamide], for which the IC50 on 5-lipoxygenase [1] is 8 µM.

For `CC(=O)N(O)Cc1ccc(C(O)C#Cc2ccccc2Cl)cc1` (stereo not drawn) [Example 9, N-Hydroxy-N-[4-[1-hydroxy-3-(2-chlorophenyl)prop-2-yn-1-yl]benzyl]acetamide], the IC50 at 5-lipoxygenase [2] was found to be 4 µM. For `CCOC(C#Cc1cccs1)c1ccc(CN(O)C(N)=O)cc1` (stereo not drawn) [Example 35, N-Hydroxy-N-[4-[1-ethoxy-3-(2-thienyl)prop-2yn-1-yl]benzyl]urea], the IC50 is 5 µM on 5-lipoxygenase [1] and 3 µM at 5-lipoxygenase [2]. Turning to `COc1cccc(C#CC(O)c2ccc(CN(O)C(C)=O)cc2)c1` (stereo not drawn) [Example 13, N-Hydroxy-N-[4-[1-hydroxy-3-(3-methoxyphenyl)prop-2-yn-1-yl]benzyl]acetamide], the IC50 at 5-lipoxygenase [1] and at 5-lipoxygenase [2] was 3 µM in each case. `CCOC(C#Cc1ccc(OC)c(OC)c1)c1ccc(CN(O)C(C)=O)cc1` (stereo not drawn) [Example 33, N-Hydroxy-N-[4-[1-ethoxy-3-(3,4-dimethoxyphenyl)prop-2-yn-1-yl]benzyl]acetamide]: the results for the IC50 at 5-lipoxygenase [1] and at 5-lipoxygenase [2] were 6 µM and 5 µM, respectively. In the case of `CC(=O)N(O)Cc1cccc(C(O)C#Cc2ccccc2)c1` (stereo not drawn) [Example 19, N-Hydroxy-N-[3-[1-hydroxy-3-phenyl-prop-2-yn-1-yl]benzyl]acetamide], the 50% inhibitory concentration (IC50) on 5-lipoxygenase [2] was determined as 3 µM. Regarding `NC(=O)N(O)Cc1ccc(C(O)C#Cc2ccc(Cl)cc2)cc1` (stereo not drawn) [Example 24, N-Hydroxy-N-[4-[1-hydroxy-3-(4-chlorophenyl)prop-2-yn-1-yl]benzyl]urea], the IC50 on 5-lipoxygenase [2] is 3 µM. `CC(=O)N(O)Cc1cccc(C(O)C#Cc2ccsc2)c1` (stereo not drawn) [Example 20, N-Hydroxy-N-[3-[1-hydroxy-3-(3-thienyl)prop-2-yn-1-yl]benzyl]acetamide]: the IC50 at 5-lipoxygenase [1] was 7 µM. As to `CC(=O)N(O)Cc1ccc(C(O)C#Cc2ccccc2)cc1` (single isomer, unassigned; (+)) [Example 2, (+)-N-Hydroxy-N-[4-[1-hydroxy-3-phenyl-prop-2-yn-1-yl]benzyl]acetamide], the IC50 on 5-lipoxygenase [2] is 4 µM. On to `CC(=O)OC(C#Cc1ccccc1)c1ccc(CN(O)C(C)=O)cc1` (stereo not drawn) [Example 4, N-Hydroxy-N-[4-[1-acetoxy-3-phenyl-prop-2-yn-1-yl]benzyl]acetamide], for which the IC50 at 5-lipoxygenase [1] is 9 µM; on 5-lipoxygenase [2], 4 µM. With `CCOC(C#Cc1ccccc1)c1ccc(CN(O)C(C)=O)cc1` (stereo not drawn) [Example 5], the IC50 at 5-lipoxygenase [1] was 5 µM; at 5-lipoxygenase [2] it was 4 µM. As to `NC(=O)N(O)Cc1ccc(C(O)C#Cc2cccs2)cc1` (stereo not drawn) [Example 27, N-Hydroxy-N-[4-[1-hydroxy-3-(2-thienyl)prop-2-yn-1-yl]benzyl]urea], at 5-lipoxygenase [2], the IC50 stood at 3 µM. With `NC(=O)N(O)Cc1cccc(C(O)C#Cc2ccccc2)c1` (stereo not drawn) [Example 29, N-Hydroxy-N-[3-[1-hydroxy-3-phenyl-prop-2-yn-1-yl]benzyl]urea], at 5-lipoxygenase [2], the IC50 came to 4 µM.

By IC50 is commonly meant the point on the concentration scale where inhibition reaches its midpoint.

The values above are taken from US5326902A, “Oxyalkyne compounds, pharmaceutical compositions containing them and processes for preparing such compounds and compositions” (Gruenenthal GmbH, priority 1992, dated 1994).
